Results as given in patent US10968209B2, “TRPV4 antagonist” (GlaxoSmithKline Intellectual Property (No.2) Limited, priority 2016, dated 2021).

Molecular target: T1, human TRPV4 (Homo sapiens, UniProt Q9HBA0)
T1 construct: expressed in transfected cells; host or cells: HEK293 MSRII cells (BacMam transduction)
Assay: Ligand-gated assay: FLIPR assay for human TRPV4 expressed in HEK293 MSRII cells
Assay type: cell-based
Conditions: HEK293 MSRII cells transduced with BacMam virus expressing human TRPV4; Fluo-4 calcium signal; agonist at EC80; read-out: activity (inhibition of Agonist Compound-induced calcium signal)
Source text: FLIPR Assay for Human TRPV4 Expressed in HEK293 MSRII Cells
TRPV4 channel activation results in an influx of divalent and monovalent cations including calcium. The resulting changes in intracellular calcium were monitored using a calcium specific fluorescent dye Fluo-4 (MDS Analytical Technologies). HEK293 MSRII cells (human embryonic kidney 293 cells stably expressing the macrophage scavenger receptor class II) transduced with BacMam virus expressing the human TRPV4 gene at 1% final concentration were plated in a 384 well poly-D lysine coated plate (15,000 cells/well in 50 μL culture medium containing DMEM/F12 with 15 mM HEPES, 10% FBS, 1% Penicillin-Streptomycin and 1% L-glutamine). Cells were incubated for 24-72 hours at 37° C. and 5% CO2. Culture medium was then aspirated using a Tecan plate-washer and replaced with 20 μL/well of dye loading buffer: HBSS, 500 μM Brilliant Black (MDS Analytical Technologies), and 2 μM Fluo-4 AM. Dye loaded plates were then incubated in the dark at room temperature for 1-1.5 hours. […] Calcium signals were measured using FLIPR^TETRA (MDS Analytical Technologies) or FLIPR384 (MDS Analytical Technologies) and the inhibition of Agonist Compound-induced calcium signal by the test compound was determined.

T1 sequence (Q9HBA0 whole entry): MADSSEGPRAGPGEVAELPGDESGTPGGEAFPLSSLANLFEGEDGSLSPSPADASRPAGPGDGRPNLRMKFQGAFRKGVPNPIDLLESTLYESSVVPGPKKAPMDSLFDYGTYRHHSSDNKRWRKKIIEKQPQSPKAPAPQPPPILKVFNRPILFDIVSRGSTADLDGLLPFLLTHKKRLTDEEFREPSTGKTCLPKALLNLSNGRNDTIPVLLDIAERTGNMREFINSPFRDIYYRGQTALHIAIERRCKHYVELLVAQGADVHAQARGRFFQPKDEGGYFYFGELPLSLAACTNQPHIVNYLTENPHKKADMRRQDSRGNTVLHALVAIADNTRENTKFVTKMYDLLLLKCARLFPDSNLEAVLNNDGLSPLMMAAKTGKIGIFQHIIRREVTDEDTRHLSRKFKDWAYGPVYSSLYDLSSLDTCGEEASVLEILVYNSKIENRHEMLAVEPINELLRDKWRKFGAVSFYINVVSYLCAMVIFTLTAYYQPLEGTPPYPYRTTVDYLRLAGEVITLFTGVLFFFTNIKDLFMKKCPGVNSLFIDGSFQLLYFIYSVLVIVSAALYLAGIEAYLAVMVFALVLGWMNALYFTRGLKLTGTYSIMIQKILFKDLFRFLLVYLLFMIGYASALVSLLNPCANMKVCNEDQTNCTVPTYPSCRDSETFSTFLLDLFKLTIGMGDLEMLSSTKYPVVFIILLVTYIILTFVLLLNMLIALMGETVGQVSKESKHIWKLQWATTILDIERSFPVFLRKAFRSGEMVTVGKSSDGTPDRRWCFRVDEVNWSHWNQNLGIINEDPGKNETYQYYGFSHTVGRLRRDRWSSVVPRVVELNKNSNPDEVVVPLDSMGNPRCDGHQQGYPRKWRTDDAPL

IC50: 6.3 nM
SMILES: N#Cc1ccc2ncn(C[C@@]3(O)CCC[C@@]4(CN(c5cnc(C6CC6)cn5)C(=O)O4)C3)c2c1 [Compound A, 1-(((5S,7R)-3-(5-cyclopropylpyrazin-2-yl)-7-hydroxy-2-oxo-1-oxa-3-azaspiro[4.5]decan-7-yl)methyl)-1H-benzo[d]imidazole-6-carbonitrile]
